Columns and labels:
Assay type in all cases: in vivo
Oilseed Rape = test: Plant growth regulation (PGR), pre-emergence, oilseed rape; details: 14 days
Description: (§1) The compounds are sprayed with a vertical boom sprayer at the mentioned rates (ref. result-tables) pre-plant on the bare soil, then they are incorporated into the soil and the plants are seeded.

[1] = system: Winter rape “Colza d'hiver Aviso”; test: Plant growth regulation (PGR), post-emergence, winter rape; details: 14 days after application
Description: (§2) The plants are seeded and grown in a greenhouse until Growth Stage 12 (2 leafs unfolded). Then the compounds/mixture of the compounds are sprayed with a vertical boom sprayer top over the leafs.

Rye = test: Plant growth regulation (PGR), pre-emergence, rye; details: 14 days
Description: as §1

Triticale = test: Plant growth regulation (PGR), pre-emergence, triticale; details: 14 days
Description: as §1

Wheat = test: Plant growth regulation (PGR), pre-emergence, wheat; details: 14 days
Description: as §1

Soybean = test: Plant growth regulation (PGR), pre-emergence, soybean; details: 14 days
Description: as §1

Oat = test: Plant growth regulation (PGR), pre-emergence, oat; details: 14 days
Description: as §1

Summer rape “Hybridol” = test: Plant growth regulation (PGR), post-emergence, summer rape; details: 14 days after application
Description: as §2

Barley = test: Plant growth regulation (PGR), pre-emergence, barley; details: 14 days
Description: as §1

Structure (SMILES): CC(C)(C)[C@@H](O)[C@@H](Cc1ccc(Cl)cc1)n1cncn1 (racemic) [Paclobutrazole, (2RS,3RS)-1-(4-chlorophenyl)-4,4-dimethyl-2-(1H-1,2,4-triazol-1-yl)-pentan-3-ol]
- Observed PGR in % (% Cobs) (Oilseed Rape; Paclobutrazole 12.5 mg/L): 40%
- Observed PGR in % (% Cobs) (Oilseed Rape; Paclobutrazole 25 mg/L): 50%
- Observed PGR in % (% Cobs) (Oilseed Rape; Paclobutrazole 50 mg/L): 55%
- Observed PGR in % (% Cobs) ([1]; Paclobutrazole 31.3 g a.i./ha): 30%
- Observed PGR in % (% Cobs) ([1]; Paclobutrazole 62.5 g a.i./ha): 33%
- Observed PGR in % (% Cobs) (Rye; Paclobutrazole 25 mg/L): 25%
- Observed PGR in % (% Cobs) (Rye; Paclobutrazole 50 mg/L): 40%
- Observed PGR in % (% Cobs) (Triticale; Paclobutrazole 25 mg/L): 10%
- Observed PGR in % (% Cobs) (Triticale; Paclobutrazole 50 mg/L): 30%
- Observed PGR in % (% Cobs) (Wheat; Paclobutrazole 12.5 mg/L): 20%
- Observed PGR in % (% Cobs) (Wheat; Paclobutrazole 25 mg/L): 25%
- Observed PGR in % (% Cobs) (Wheat; Paclobutrazole 50 mg/L): 40%
- Observed PGR in % (% Cobs) (Soybean; Paclobutrazole 25 mg/L): 30%
- Observed PGR in % (% Cobs) (Soybean; Paclobutrazole 50 mg/L): 50%
- Observed PGR in % (% Cobs) (Oat; Paclobutrazole 25 mg/L): 30%
- Observed PGR in % (% Cobs) (Oat; Paclobutrazole 50 mg/L): 40%
- Observed PGR in % (% Cobs) (Summer rape “Hybridol”; Paclobutrazole 31.3 g a.i./ha): 17%
- Observed PGR in % (% Cobs) (Summer rape “Hybridol”; Paclobutrazole 62.5 g a.i./ha): 23%
- Observed PGR in % (% Cobs) (Barley; Paclobutrazole 12.5 mg/L): 0%
- Observed PGR in % (% Cobs) (Barley; Paclobutrazole 25 mg/L): 10%
- Observed PGR in % (% Cobs) (Barley; Paclobutrazole 50 mg/L): 30%

Structure (SMILES): CC1COC(Cn2cncn2)(c2ccc(Oc3ccc(Cl)cc3)cc2Cl)O1 (stereo not drawn) [Difenoconazole, 1-[2-[2-chloro-4-(4-chlorophenoxy)phenyl]-4-methyl-1,3-dioxolan-2-ylmethyl]-1H-1,2,4-triazole]
- Observed PGR in % (% Cobs) (Oilseed Rape; Difenoconazole 25 mg/L): 0%
- Observed PGR in % (% Cobs) (Oilseed Rape; Difenoconazole 50 mg/L): 0%
- Observed PGR in % (% Cobs) (Oilseed Rape; Difenoconazole 100 mg/L): 0%
- Observed PGR in % (% Cobs) ([1]; Difenoconazole 62.5 g a.i./ha): 0%
- Observed PGR in % (% Cobs) ([1]; Difenoconazole 125 g a.i./ha): 0%
- Observed PGR in % (% Cobs) (Rye; Difenoconazole 50 mg/L): 0%
- Observed PGR in % (% Cobs) (Rye; Difenoconazole 100 mg/L): 0%
- Observed PGR in % (% Cobs) (Triticale; Difenoconazole 50 mg/L): 0%
- Observed PGR in % (% Cobs) (Triticale; Difenoconazole 100 mg/L): 0%
- Observed PGR in % (% Cobs) (Wheat; Difenoconazole 25 mg/L): 0%
- Observed PGR in % (% Cobs) (Wheat; Difenoconazole 50 mg/L): 0%
- Observed PGR in % (% Cobs) (Wheat; Difenoconazole 100 mg/L): 0%
- Observed PGR in % (% Cobs) (Soybean; Difenoconazole 50 mg/L): 0%
- Observed PGR in % (% Cobs) (Soybean; Difenoconazole 100 mg/L): 0%
- Observed PGR in % (% Cobs) (Oat; Difenoconazole 50 mg/L): 0%
- Observed PGR in % (% Cobs) (Oat; Difenoconazole 100 mg/L): 0%
- Observed PGR in % (% Cobs) (Summer rape “Hybridol”; Difenoconazole 62.5 g a.i./ha): 0%
- Observed PGR in % (% Cobs) (Summer rape “Hybridol”; Difenoconazole 125 g a.i./ha): 0%
- Observed PGR in % (% Cobs) (Barley; Difenoconazole 25 mg/L): 0%
- Observed PGR in % (% Cobs) (Barley; Difenoconazole 50 mg/L): 0%
- Observed PGR in % (% Cobs) (Barley; Difenoconazole 100 mg/L): 0%

— patent US8071507B2, “Plant growth regulating and fungicidal compositions” (Syngenta Crop Protection, Inc., priority 2005, dated 2011)
